Data as given in patent US20220151827A1, “Ophthalmic Compositions, and Ocular Uses Thereof, of Indigo Carmine” (priority 2019, published 2022).
“Also recorded” adds a separate entry of the source.

Assays:
eye bank eyes = experiment: Dye solution instilled by injection into the anterior chamber of eye bank eyes, viewed by naked eye / operating microscope; parameters: species or system human; settings: for egress of dye from the eye into outflow vessels after injection into the anterior chamber: eye bank eyes, Indigo Carmine 0.004, 0.04, 0.4 wt. %, other ophthalmic dyes for comparison
From the text: After an incision is made into the anterior chamber of the eye, a small amount of aqueous humor is expressed and the dye solution is instilled by injection into the anterior chamber. The dye solution is typically left in place for 30 seconds, during which time it stains the anterior capsule of the lens. Excess dye solution is then expelled, usually using a viscoelastic device or flushed out with a balanced salt solution.
Dye solutions containing 0.004 wt. %, 0.04 wt. %, and 0.4 wt. % of Indigo Carmine (prepared by serial dilutions of a 0.4 wt. % Indigo Carmine solution provided by Micro-Tech (Nanjing) Co.) were instilled by injection into the anterior chamber of seven eye bank eyes following the dye solution instillation procedure detailed above.
Special imaging techniques were not required.

[1] = test system: ocular surface squamous neoplastic lesion; experiment: Topical application of dye to a human eye, slit lamp view of ocular surface squamous neoplastic lesion; format: in vivo
From the text: FIG. 8 is a slit lamp view of a human eye wherein an ocular surface squamous neoplastic lesion is delineated after topical application of Indigo Carmine. A blue outline is seen around the perimeter of the white ocular surface squamous neoplastic lesion.
In certain embodiments, the dye delineates eye surface dysplasia and malignancy (ocular surface squamous neoplasia) as has been found in the gut (see, e.g., Oyama, T., “Diagnostic strategies of superficial Barrett's esophageal cancer for endoscopic submucosal dissection”, Dig. Endosc., 2013, 25 Suppl 1:7-12) (see FIG. 7)

porcine eye = experiment: Dye injected into the lenticular plain after Small Incision Lenticule Extraction (SMILE) in a porcine eye; settings: injected along the laser incision planes
From the text: FIG. 9A is an operating microscope view of a porcine eye upon which a Small Incision Lenticule Extraction procedure (SMILE) has been carried out. From this view, circular horizontal plains have been cut in the corneal stroma, a superficial smaller diameter cut and a deeper cut of larger diameter. The cuts join in the corneal periphery, thereby creating a lenticule. The arrows show the edge of these cuts.
FIG. 9B is an operating microscope view of a porcine eye upon which a Small Incision Lenticule Extraction procedure (SMILE) has been carried out. Indigo Carmine has been injected into the lenticular plain. The white arrows indicate the complete circular edge of the lenticule.
Minimally invasive corneal procedures for correcting refractive error (see, e.g., Titiyal, J. S., et al., “Learning Curve of Small Incision Lenticule Extraction: Challenges and Complications”, Cornea, 2017, 36:1377-1382) have also been developed in recent years. For example, in Small Incision Lenticule Extraction (SMILE), a lenticule of corneal stroma is created within the stroma using a laser and then removed through a small incision. Occasionally, the cuts that create the lenticule are discontinuous, making lenticule extraction difficult. […]

protein = settings: sodium salt; cited from earlier work
[2] = cited from earlier work
[3] = reduced state, fluorescent; cited from earlier work
anterior capsule = settings: cited from earlier work
ocular structures = settings: cited from earlier work
[4] = anterior chamber perfused with dye solution, sodium salt

O=C1C(=C2Nc3ccc(S(=O)(=O)[O-])cc3C2=O)Nc2ccc(S(=O)(=O)[O-])cc21.[Na+].[Na+] [Indigo Carmine, 5,5′-indigodisulfonic acid sodium salt]
staining of the canal of Schlemm (eye bank eyes; [4]): heavily; also recorded: heavy staining
staining of the trabecular meshwork (eye bank eyes; [4]): lightly; also recorded: more lightly stained
visibility of dye in the collector channels on the surface of the eye (eye bank eyes; at each concentration: 0.004, 0.04 and 0.4 wt. %): visible to the naked eye of the surgeon as it appeared in the collector channels on the surface of the eye
staining of the anterior capsule of the lens (eye bank eyes; capsulorhexis procedure, eye bank eye): lightly stained
dye in the deep scleral plexus (eye bank eyes; conjunctiva reflected away, sodium salt): observed in the deep scleral plexus; also recorded: deeper vessels are seen, evidence of the deep scleral plexus
egress of dye from the eye into outflow vessels after injection into the anterior chamber (eye bank eyes; sodium salt): appeared in the fine vessels in the conjunctiva adjacent to the limbus, the aqueous veins and the conjunctival venous system; also recorded: some of the dye exiting the eye through the aqueous veins
visibility of dye on the surface of the instilled eye (eye bank eyes; no special imaging): easily visible to the naked eye of the surgeon
delineation of ocular surface squamous neoplastic lesion [1]: delineated
identification of laser incision planes and lenticule edge (porcine eye): possible to identify and determine the extent of these incisions
protein binding (protein): low protein binding; also recorded: relatively reduced
solubility in water [2]: soluble in water
absorption maximum [3]: 436 nm
emission maximum [3]: 528 nm

CC1(C)C(/C=C/C=C/C=C/C=C2\N(CCCCS(=O)(=O)O)c3ccc4ccccc4c3C2(C)C)=[N+](CCCCS(=O)(=O)[O-])c2ccc3ccccc3c21 [Indocyanine Green]
egress of dye from the eye into outflow vessels after injection into the anterior chamber (eye bank eyes): appears to remain within the eye

CCN(CC)c1ccc(C(=C2C=CC(=[N+](CC)CC)C=C2)c2cc(O)c(S(=O)(=O)O)cc2S(=O)(=O)O)cc1 [Patent Blue]
egress of dye from the eye into outflow vessels after injection into the anterior chamber (eye bank eyes): appears to remain within the eye

Cc1cc(-c2ccc(/N=N/c3c(S(=O)(=O)O)cc4cc(S(=O)(=O)O)cc(N)c4c3O)c(C)c2)ccc1/N=N/c1c(S(=O)(=O)O)cc2cc(S(=O)(=O)O)cc(N)c2c1O [Trypan Blue]
staining of the trabecular meshwork (eye bank eyes; anterior chamber perfused with dye solution): particularly enhances trabecular meshwork staining
egress of dye from the eye into outflow vessels after injection into the anterior chamber (eye bank eyes): appears to remain within the eye
lowest concentration at which staining can occur (anterior capsule): 0.0125 wt. %
identifying and visualizing anterior lens capsule and trabecular meshwork (ocular structures): effective
identifying or visualizing the canal of Schlemm (ocular structures): not effective

Brilliant Blue
egress of dye from the eye into outflow vessels after injection into the anterior chamber (eye bank eyes): appears to remain within the eye
